Data published in patent US8795734B2, “Hydrophobic nanotubes and nanoparticles as transporters for the delivery of drugs into cells” (The Board of Trustees of the Leland Stanford Junior …, priority 2005, dated 2014).

Key:
[1] = tested on: CXCR4; assay: Silencing by PL-PEG-s-s-siRNA conjugates of different nanoparticles; type: cell-based
Excerpt: Conjugates as prepared according to Examples 24-27 were made with nanoparticles other than SWNTs. It was shown that MWNTs, carbon black nanoparticles can all be used to make noncovalent PL-PEG-s-s-siRNA conjugates. […] Referring to FIG. 10A, the silencing effect for these conjugates is shown with reference to SWNT conjugates. The experiments were done with the following:
Referring now to FIG. 10B, CXCR4 silencing is shown for different nanoparticles. Polystyrene spheres (PS, 20 nm and 50 nm) were also used to make noncovalent PL-PEG-s-s-siRNA conjugates. […] The data in FIG. 10B below compares the RNAi effects of PS delivery vs. nanotube delivery.

[2] = tested on: HL60 cells; assay: Cellular uptake of SWNT conjugates by confocal microscopy and flow cytometry; type: cell-based, human; settings: protein alone, versus untreated cells
Protocol: HL60 and Jurkat cells were both grown in RPMI-1640 cell culture medium (Invitrogen) supplemented with 10% fetal bovine serum (FBS). Prior to incubation, the cells were collected by centrifugation and resuspended in RPMI medium at a cell density of 3μ 10^6 cells/mL. Incubation of cells in a nanotube solution was done by mixing 100 μL of the cell suspension with 100 μL of a SWNT solution (2, 3 or 4) at 37° C. unless otherwise stated. The concentration of SWNT in the incubation solution was ˜0.05 mg/mL unless otherwise stated, and the incubation duration was always 1 h in 5% CO2 atmosphere except for time dependent incubation experiments. After incubation, the cells were washed and collected by centrifugation twice, and resuspended in RPMI medium.
FM4-64 (Molecular Probes Inc.) is a classical marker used for staining membrane and endosomes. The cell incubations were carried out under similar conditions as discussed in the previous section, except that FM 4-64 (2% v/v) was added to the incubation mixture. […]
Also, cells were analyzed by a Becton-Dickinson FACScan instrument after incubation in various nanotube solutions. […] We carried out dual detection of red and green fluorescence with the cells. The data presented here represent the mean green fluorescence obtained with a population of 10,000 live cells.

[3] = tested on: HL-60 cells; assay: Cell proliferation CellTiter 96 MTS assay; type: cell-based, human; settings: 2 h incubation, monitored up to 5 days versus untreated cells
Protocol: After incubation with the SWNT-streptavidin conjugate (unlabeled), HL-60 cells were washed and resuspended in RPMI media. The cells were plated in a 6-well plate at a density of ˜8×10^3 cells/well. At 24 h interval, Celltiter96 reagent (Promega) was added to one of the wells and allowed to incubate for ˜2-3 h at 37° C. and 5% CO2. The CellTiter 96 assay uses the tetrazolium compound (3-(4,5-dimethylthiazol-2-yl)-5-(3-carboxymethoxyphenyl)-2-(4-sulfophenyl)-2H-tetrazolium, inner salt; MTS) and the electron-coupling reagent, phenazine methosulfate (PMS). […] The measurement of the absorbance of the formazan can be carried out at 490 nm. […]
We used the CellTiter 96 MTS assay (Promega) to examine the proliferation of HL60 cells following exposure to SWNT-protein conjugates. […] The absorbance of the formazan salt can be measured at 490 nm and correlates to the number of cells in the suspension. The absorbance from the cells incubated with the SWNT-protein conjugates was measured over a period of 5 days in parallel with control cells never exposed to any nanotubes. The absorbance detected by a UV-VIS spectrophotometer was very similar for cells with and without exposure to SWNTs over the 5-day monitoring period.
Cells were incubated with SWNT-SA conjugate (without fluorescent label) for 2 hrs. […] The absorbance is then taken at 490 nm.

[4] = tested on: HL60 and HeLa cells; assay: Internalization of SWNT-protein, SWNT-DNA and SWNT-SS-DNA conjugates (fluorescence confocal, flow cytometry); type: cell-based, human
Protocol: Two cell lines, human promyelomonocytic HL60 cells and cervical cancer HeLa cells were used in the current work. HL60 were cultured in RPMI medium supplemented with 10% fetal bovine serum (FBS), while HeLa cells were cultured in DMEM medium supplemented with 10% FBS and 1% penicillin-streptomycin. The cells were suspended in phosphate buffered saline (PBS), mixed with a SWNT conjugate and incubated for 1-3 h at 37° C., except for the low temperature incubations. The concentration of SWNTs in the incubation solution was typically ˜2.5 mg/L as measured by UV-vis-NIR absorption spectrum, and the cell density was ˜2×10^5 cells/well. Adherent HeLa cells were either trypsinized to detach from the Petri dishes to form a suspension or were seeded overnight in chambered cover-slides.
Both the protein and DNA molecules were labeled with a fluorescent tag (by either Cy3 or Alexa Fluor 488) to allow for confocal fluorescence imaging and flow cytometry analysis.
We carried out incubations of protein-SWNT and DNA-SWNT with HL60 and HeLa cells at 4° C. and with cells pretreated with NaN3.

[5] = tested on: HL-60 cells; assay: Cell viability study with PEG-phospholipid functionalized SWNTs (propidium iodide); type: cell-based
Protocol: HL-60 cells were incubated and then washed to remove excess nanotubes, as described above. The cells were then placed into the incubator for an additional 24 h with the RPMI medium. The cells were then examined through a confocal microscope, after being stained with 2% (v/v) of propidium iodide (Biochemika), a common stain for dead cells. Control experiments were carried out for cells without exposure to nanotubes.
The confocal images (not shown) of HL-60 cells were obtained (a) untreated (b) treated with FTIC-PEG-PE modified CNTs for 90 min at 37° C. Cells were washed and allowed to incubate for an additional 24 h prior to confocal analysis. Propidium iodide is added to the suspension in order to stain for dead cells (red cells in the images).

[6] = tested on: NIH-3T3 cells; assay: Apoptosis assay by Annexin V-FITC staining; type: cell-based
Excerpt: We use Annexin V labeled with fluorescein isothiocyanate (Molecular Probes) as an early stage apoptosis marker. One of the earliest indications of apoptosis is the translocation of the membrane phospholipid phosphatidylserine (PS) from the inner to the outer leaflet of the plasma membrane. Once exposed to the extracellular environment, binding sites on PS become available for Annexin V, a ˜35 kDa Ca^2+-dependent, phospholipid binding protein with a high affinity for PS (Pigault, C.; Follenius-Wund, A.; Schmutz, M.; Freyssinet, J.; Brisson, A. J. Mol. Biol. 1994, 236, 199) (also see Sigma Technical Bulletin number MB-390). In this study, NIH 3T3 cells were plated and incubated with SWNT-cytochrome c as described above. […] The cells were co-stained with propidium iodide and immediately analyzed by flow cell cytometry. Apoptosis data in FIG. 3 were for cells free of PI-staining recorded ˜4-5 h after exposure to chloroquine with or without (for control) cyt c-SWNT conjugates.
HeLa (human cervix carcinoma) and NIH-3T3 cell lines, shown previously to undergo cyt-c-induced apoptosis were investigated in this study for intracellular transporting of cyt-c with SWNTs and for apoptosis assay (Cai). Unlike the proteins used for other uptake experiments, cyt-c used for binding to SWNTs and transported inside cells for apoptosis assay were free of any fluorescence label. […]

[7] = tested on: endosomal compartments of cells; assay: Endosome release of protein-SWNT conjugates by chloroquine (confocal); type: cell-based
Excerpt: A.; Murthy, N.; Press, O. W.; Tirrell, D. A.; Hoffman, A. S.; Stayton, P. S. Bioconj. Chem. 1999, 10, 401; Cho, Y. W.; Kim, J. D.; Park, K. J. Pharm. Pharmacol. 2003, 55, 721). These methods make use of the pH difference across the endosome membrane and the pH response of the polymers or amines. For SWNT transporters, similar complexation schemes can be developed to afford nanotube transporters containing an endosome-releasing agent. While such an effort warrants detailed investigations separately from the current work, we describe here the release of internalized protein-SWNT conjugates from the endosomal compartments by adding chloroquine to cell medium during incubation of cells in protein-SWNT conjugates. […] The resulting osmotic pressure can lead to swelling of the endosomal compartments and eventual rupture (Ogris, M.; Steinlein, P.; Kursa, M.; Mechtler, K.; Kircheis, R.; Wagner, E. Gene Ther. 1998, 5, 1425).
In experiments carried out with and without chloroquine, we noticed a difference in the distribution of the detected fluorescence inside the cells. […] FIG. 2 (a) Cells are incubated with (a) SWNT-CytC conjugate and (b) SWNT-CytC+100 μM of chloroquine at 37° C. and 5% CO2 Confocal images are taken immediately after incubation and washing. […]

For Carbon black, the “cell entry and siRNA delivery” value [1] was “able to enter cells and deliver siRNA into cells” and the “silencing effect compared to SWNT conjugates (FIG. 10A)” value ([1]; ~20 nM nanoparticle) was “greater silencing efficiency at day 3”.
“SA: Fluoresceinated streptavidin protein alone, MW ~60 kD” was tested, and the “fluorescence of cells by flow cytometry” value [2] was “only slightly greater than the background fluorescence of untreated cells”.
“SWNT-SA conjugate: Streptavidin without fluorescent label non-specifically bound to oxidized SWNTs” was tested, and the “cell proliferation (absorbance at 490 nm)” value [3] was “does not show any deviation from the proliferation of untreated cells”.
For “SWNT-protein: Fluorescently labeled BSA non-specifically bound to oxidized Hipco SWNTs”, the cellular internalization ([4]; 1-3 h at 37 °C) was “cellular internalization” and the “level of fluorescence in the cells” value ([4]; 4 °C incubation and NaN3 pretreatment (ATP depletion)) was “considerably lower”.
In the case of Tween-20, the “effect of surfactant exposure on cells” value [5] is reported as “Cells tended to die”.
“cyt-c-SWNT: Cytochrome c (12 kD) non-covalently bound to oxidized SWNTs” was tested, and the “percentage of apoptosed cells versus cyt-c alone” value ([6]; Annexin V-FITC staining) was “significantly higher percentages of apoptosed cells”, the “degree of apoptosis with versus without chloroquine” value ([6]; in the presence of chloroquine) was “Higher degrees of apoptosis” and the “distribution of fluorescence inside the cells” value ([7]; 100 μM chloroquine) was “diffuse and uniform”. For the same substance, the “distribution of fluorescence inside the cells” value ([7]; absence of chloroquine) was “discrete punctate fluorescence spots”.
